Earlier results in paper PMC6696021, “Combined Ensemble Docking and Machine Learning in Identification of Therapeutic Agents with Potential Inhibitory Effect on Human CES1” (Molecules, 2019).

Molecular target: CES1
Set-up: method as in earlier work
Conditions: Table S1, bioactivity from ChEMBL database; read-out: Ki_Nanomolar; cited from earlier work

| Compound | Ki |
| --- | --- |
| O=C1C=Cc2ccccc2C1=O [1-2-NAPHTHOQUINONE] | 930 nM |
| O=C1C(=O)c2ccccc2-c2ccccc21 [9-10-PHENANTHRENEQUINONE] | 2.5 nM |
| O=C1C(=O)c2cccc3cccc1c23 [ACENAPHTHOQUINONE] | 31 nM |
| O=C(c1ccccc1)C(O)c1ccccc1 (stereo not drawn) [BENZOIN] | 30400 nM |
| CCCCCCCCCCC(=O)C(F)(F)F [CHEMBL86668] | 76.8 nM |
| CCCCCCCCSCC(=O)C(F)(F)F [CHEMBL89506] | 97.4 nM |
| O=C1C(=O)N(Cc2ccccc2)c2ccccc21 [CHEMBL115581] | 1700 nM |
| O=C1Nc2ccc(Br)cc2C1=O [CHEMBL115897] | 31700 nM |
| O=C(C(=O)c1ccc2ccccc2c1)c1ccc2ccccc2c1 [CHEMBL189162] | 256 nM |
| O=C(c1cccs1)C(O)c1cccs1 (stereo not drawn) [CHEMBL190660] | 3100 nM |
| O=C(C(=O)c1cc(Br)cs1)c1cc(Br)cs1 [CHEMBL190672] | 20.8 nM |
| COc1ccc(C(=O)C(=O)c2ccc(OC)cc2)cc1 [CHEMBL191513] | 3400 nM |
| O=C(C(=O)c1cccc([N+](=O)[O-])c1)c1cccc([N+](=O)[O-])c1 [CHEMBL191796] | 18100 nM |
| COc1ccc(C(=O)C(=O)c2ccccc2Cl)cc1OC [CHEMBL191822] | 3310 nM |
| Cc1ccc(C(=O)C(=O)c2ccccc2)cc1[N+](=O)[O-] [CHEMBL191847] | 223 nM |
| O=C(C(=O)c1ccc(Cl)cc1)c1ccc(Cl)cc1 [CHEMBL192139] | 25100 nM |
| O=C(C(=O)c1ccc(Cl)cc1)c1ccccc1 [CHEMBL192180] | 37 nM |
| O=C(C(=O)c1ccc(CBr)cc1)c1ccccc1 [CHEMBL192241] | 77.6 nM |
| Cc1ccc(C(=O)C(=O)c2ccc(Cl)cc2)cc1 [CHEMBL192252] | 159 nM |
| CC(=O)C(=O)c1ccccc1 [CHEMBL192258] | 5270 nM |
| O=C(C(=O)c1ccc(F)cc1)c1ccc(F)cc1 [CHEMBL192410] | 230 nM |
| COc1ccc(C(=O)C(=O)c2ccccc2)cc1 [CHEMBL192474] | 174 nM |

| Compound | Ki |
| --- | --- |
| O=C(C(=O)c1ccc([N+](=O)[O-])cc1)c1ccccc1 [CHEMBL192589] | 214 nM |
| O=C(C(=O)c1ccc(Br)s1)c1ccc(Br)s1 [CHEMBL192592] | 142 nM |
| Cc1ccc(C(=O)C(=O)c2ccc(C)cc2)cc1 [CHEMBL192625] | 535 nM |
| Cc1ccc(C(=O)C(=O)c2ccccc2)cc1C [CHEMBL193140] | 79.2 nM |
| O=C(C(=O)c1cc(F)c(F)c(F)c1)c1cc(F)c(F)c(F)c1 [CHEMBL193180] | 405 nM |
| O=C(C(=O)c1ccc(Br)cc1)c1ccc(Br)cc1 [CHEMBL193228] | 66700 nM |
| O=C(C(=O)c1cc(F)cc(F)c1)c1cc(F)cc(F)c1 [CHEMBL193229] | 79.7 nM |
| O=C(C(=O)c1c(Cl)c(Cl)c(Cl)c(Cl)c1Cl)c1c(F)c(F)c(F)c(F)c1F [CHEMBL195713] | 1690 nM |
| COc1cc(NCN2C(=O)C(=O)c3ccccc32)cc(OC)c1OC [CHEMBL221362] | 19500 nM |
| O=C1Nc2c(Cl)cccc2C1=O [CHEMBL222190] | 11400 nM |
| O=C1Nc2c(ccc(Cl)c2Cl)C1=O [CHEMBL222292] | 9400 nM |
| CCCCCCCCCCCCN1C(=O)C(=O)c2ccccc21 [CHEMBL222644] | 10 nM |
| O=C1C(=O)N(CNc2ccc(Cl)cc2)c2ccccc21 [CHEMBL222712] | 610 nM |
| O=C1C(=O)N(Cc2ccc(Cc3ccc(CN4C(=O)C(=O)c5ccccc54)cc3)cc2)c2ccccc21 [CHEMBL222752] | 8 nM |
| Cc1ccc(NCN2C(=O)C(=O)c3ccccc32)cc1 [CHEMBL222851] | 2650 nM |
| O=C1Nc2cc(Cl)c(Cl)cc2C1=O [CHEMBL222988] | 21000 nM |
| O=C1C(=O)N(CCBr)c2ccccc21 [CHEMBL223000] | 290 nM |
| CC(=O)N1C(=O)C(=O)c2ccccc21 [CHEMBL223001] | 36000 nM |
| O=C1Nc2c(Cl)ccc(Cl)c2C1=O [CHEMBL223039] | 590 nM |
| C=C(C)CN1C(=O)C(=O)c2cc(Br)ccc21 [CHEMBL225169] | 66 nM |
| O=C(C(=O)C1CCCCC1)C1CCCCC1 [CHEMBL235287] | 38.5 nM |
| O=C1Cc2ccccc2C1=O [CHEMBL235288] | 5240 nM |

| Compound | Ki |
| --- | --- |
| O=C1C(=O)c2ccc([N+](=O)[O-])c3c([N+](=O)[O-])ccc1c23 [CHEMBL235289] | 570 nM |
| O=C1C(=O)c2cccc3c2N(CCC3)C1=O [CHEMBL235290] | 5380 nM |
| O=C1C(=O)c2c3ccccc3cc3cccc1c23 [CHEMBL235503] | 1.5 nM |
| O=C1C(=O)c2cccnc2-c2ncccc21 [CHEMBL235504] | 5400 nM |
| O=C1C(=O)c2ccccc2CCc2ccccc21 [CHEMBL235931] | 2980 nM |
| O=C(C(=O)c1ccc([N+](=O)[O-])cc1)c1ccc([N+](=O)[O-])cc1 [CHEMBL236340] | 9800 nM |
| O=S(=O)(Nc1ccc(NS(=O)(=O)c2ccc(Cl)cc2)cc1)c1ccc(Cl)cc1 [CHEMBL254426] | 13700 nM |
| CCCCCCCCCCSCC(=O)C(F)(F)F [CHEMBL270374] | 66.4 nM |
| CCCCCCCCCCCCSCC(=O)C(F)(F)F [CHEMBL270375] | 39.1 nM |
| CCCCC(=O)C(C)=O [CHEMBL364588] | 16900 nM |
| O=C1C(=O)C(Cl)=C(Cl)C(Cl)=C1Cl [CHEMBL364729] | 5440 nM |
| COC(OC)(C(=O)c1ccccc1)c1ccccc1 [CHEMBL364734] | 15300 nM |
| CC(C)(C)C1=CC(=O)C(=O)C(C(C)(C)C)=C1 [CHEMBL365161] | 88.6 nM |
| O=C(C(=O)c1ccccc1Cl)c1ccccc1Cl [CHEMBL365392] | 1650 nM |
| O=C(C(=O)c1cccs1)c1cccs1 [CHEMBL365445] | 433 nM |
| O=C(O)c1ccc(C(=O)C(=O)c2ccccc2)cc1 [CHEMBL370059] | 524 nM |
| O=C(C(=O)c1ccco1)c1ccco1 [CHEMBL371181] | 3610 nM |
| Cc1ccc(C(=O)C(=O)c2ccccc2)cc1 [CHEMBL371858] | 125 nM |
| O=C(C(=O)c1ccsc1)c1ccsc1 [CHEMBL372716] | 1050 nM |
| O=C(C(=O)c1ccccn1)c1ccccn1 [CHEMBL373345] | 245 nM |
| O=C1C(=O)N(CNc2ccccc2Br)c2ccccc21 [CHEMBL374758] | 36000 nM |
| O=C1C(=O)N(Cc2ccc(Cl)c(Cl)c2)c2ccccc21 [CHEMBL375126] | 31 nM |

| Compound | Ki |
| --- | --- |
| O=C1C(=O)N(CCI)c2ccccc21 [CHEMBL376518] | 130 nM |
| O=C1C(=O)N(CNc2ccc(Br)cc2)c2ccccc21 [CHEMBL385132] | 580 nM |
| O=C1Nc2cc(Cl)cc(Cl)c2C1=O [CHEMBL385800] | 890 nM |
| O=C1C(=O)N2CCCc3cccc1c32 [CHEMBL395654] | 1540 nM |
| O=C1C(=O)c2sccc2-c2ccsc21 [CHEMBL398109] | 150 nM |
| CCCCSCC(=O)C(F)(F)F [CHEMBL402615] | 400 nM |
| COc1cccc(C(=O)C(=O)c2cccc(OC)c2)c1 [CHEMBL435109] | 1540 nM |
| CCCCCCSCC(=O)C(F)(F)F [CHEMBL440542] | 168 nM |
| CCCCCCOCC(O)(O)C(F)(F)F [CHEMBL449475] | 1660 nM |
| CCCCCCS(=O)(=O)CC(O)(O)C(F)(F)F [CHEMBL449775] | 4890 nM |
| CCCCCCCC[S+]([O-])CC(O)(O)C(F)(F)F (stereo not drawn) [CHEMBL460806] | 7400 nM |
| CCCCCCCCS(=O)(=O)CC(O)(O)C(F)(F)F [CHEMBL460807] | 757 nM |
| CCCCCC[S+]([O-])CC(O)(O)C(F)(F)F (stereo not drawn) [CHEMBL460808] | 39700 nM |
| O=C(CSCCc1ccccc1)C(F)(F)F [CHEMBL460809] | 63.3 nM |
| CCCCCCCCCCCC[S+]([O-])CC(O)(O)C(F)(F)F (stereo not drawn) [CHEMBL463556] | 953 nM |
| CCCCCCCCCC[S+]([O-])CC(O)(O)C(F)(F)F (stereo not drawn) [CHEMBL464002] | 2620 nM |
| CCCCCCCCCCCCS(=O)(=O)CC(O)(O)C(F)(F)F [CHEMBL467450] | 371 nM |
| CCCCCCCCCCS(=O)(=O)CC(O)(O)C(F)(F)F [CHEMBL467451] | 397 nM |
| OC(O)(CSCCc1ccccc1)C(F)(F)F [CHEMBL510996] | 6900 nM |
| O=C(Nc1cccc(C(=O)C(=O)c2ccccn2)c1)c1ccc(C(F)(F)F)cc1 [CHEMBL1629724] | 437 nM |
| O=C(C(=O)c1ccccn1)c1cccc(NC(=O)c2ccc(Cl)cc2Cl)c1 [CHEMBL1630808] | 279 nM |
| Cc1ccc(C(=O)Nc2cccc(C(=O)C(=O)c3ccccn3)c2)cc1 [CHEMBL1630810] | 1030 nM |

| Compound | Ki |
| --- | --- |
| O=C(Nc1cccc(C(=O)C(=O)c2ccccn2)c1)c1ccc(F)c(F)c1 [CHEMBL1630811] | 1240 nM |
| O=C(Nc1cccc(C(=O)C(=O)c2ccccn2)c1)c1cccc(Cl)c1 [CHEMBL1630814] | 756 nM |
| O=C(Nc1cccc(C(=O)C(=O)c2ccccn2)c1)c1ccc(F)cc1 [CHEMBL1630816] | 381 nM |
| O=C(Cc1ccccc1)C(=O)Cc1ccccc1 [CHEMBL1812850] | 3080 nM |
| O=C(C(=O)C(Br)c1ccccc1)C(Br)c1ccccc1 (stereo not drawn) [CHEMBL1812851] | 107 nM |
| O=C(Cc1ccccc1)C(=O)C(Br)c1ccccc1 (stereo not drawn) [CHEMBL1812852] | 2630 nM |
| CCCC(=O)C(=O)CCC [CHEMBL1812854] | 8060 nM |
| CCCCC(=O)C(=O)CCCC [CHEMBL1812855] | 46.6 nM |
| CCCCCC(=O)C(=O)CCCCC [CHEMBL1812856] | 3 nM |
| CCCCCCC(=O)C(=O)CCCCCC [CHEMBL1812857] | 4.8 nM |
| CCCCCCCC(=O)C(=O)CCCCCCC [CHEMBL1812858] | 7.6 nM |
| CCCCCCCCC(=O)C(=O)CCCCCCCC [CHEMBL1812859] | 0.84 nM |
| CCC(=O)C(=O)c1ccccc1 [CHEMBL1812860] | 1550 nM |
| CCCC(=O)C(=O)c1ccccc1 [CHEMBL1812861] | 102 nM |
| CCCCC(=O)C(=O)c1ccccc1 [CHEMBL1812862] | 26.1 nM |
| CCCCCC(=O)C(=O)c1ccccc1 [CHEMBL1812863] | 6.68 nM |
| CCCCCCC(=O)C(=O)c1ccccc1 [CHEMBL1812864] | 2.19 nM |
| O=C(O)[C@H]1O[C@@H](OC(=O)[C@H](c2ccccc2Cl)N2CCc3sccc3C2)[C@H](O)[C@@H](O)[C@@H]1O [CHEMBL3526940] | 24800 nM |
| O=C(Cc1ccccc1Nc1c(Cl)cccc1Cl)O[C@@H]1O[C@H](C(=O)O)[C@@H](O)[C@H](O)[C@H]1O [CHEMBL3527338] | 4320 nM |
| O=C1C(Cl)=C(Cl)C(=O)C(Cl)=C1Cl [CHLORANIL] | 83.9 nM |
